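Results reflect a 48-hour exposure of cells in 96-well plates to compound at five concentrations. GI50 is the concentration that inhibits growth by half. TGI is the concentration that stops growth completely.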
Legend:
Experiment in all cases: growth of human tumour cells (NCI), 48 h
[1] = system: ACHN renal
[2] = system: COLO 205 colon
[3] = system: HL-60(TB) leukemia
[4] = system: MALME-3M melanoma
[5] = system: MDA-MB-231 breast
[6] = system: NCI-H23 lung
[7] = system: OVCAR-3 ovarian
[8] = system: RXF 393 renal
[9] = system: SF-295 CNS
[10] = system: SNB-75 CNS

Structure (SMILES) | TGI [1] | TGI [2] | TGI [3] | TGI [4] | TGI [5] | TGI [6] | TGI [7] | TGI [8] | TGI [9] | TGI [10] | GI50 [1] | GI50 [2] | GI50 [3] | GI50 [4] | GI50 [5] | GI50 [6] | GI50 [7] | GI50 [8] | GI50 [9] | GI50 [10]
Cc1ccc2c(c1)OC1Nc3ccccc3C1=C2O (stereo not drawn) | 60.8 µM | 29.2 µM | 43.1 µM | > 100 µM | 69.4 µM | 74.6 µM | 21.1 µM | 72.4 µM | 60 µM | > 100 µM |  |  |  |  |  |  |  |  |  | 
CC(C)n1c(=O)n(-c2ccccc2)n(C(C)(C)C)c1=O | > 100 µM | > 100 µM | > 100 µM | > 100 µM | > 100 µM | > 100 µM | > 100 µM | > 100 µM | > 100 µM | > 100 µM |  |  |  |  |  |  |  |  |  | 
CCOC(=O)C1=C(C)NC(=S)NC1c1cccc(O)c1 (stereo not drawn) | > 100 µM | > 82.3 µM | 77.5 µM | > 100 µM | > 90 µM | > 100 µM | > 100 µM | 65.7 µM | 93.6 µM | > 95.4 µM |  |  |  |  |  |  |  |  |  | 
COc1cccc(-c2nc3sccn3c2-c2ccnc(NCCNC(=O)Nc3cccc(C(F)(F)F)c3)n2)c1 | 19.1 µM | 19.2 µM | 7.43 µM | 26.8 µM | 12 µM | 76.9 µM | 20.3 µM | 3.65 µM | 14.9 µM | 21.7 µM | 3.17 µM | 5.37 µM | 2.92 µM | 3.86 µM | 3.47 µM | 3.42 µM | 4.22 µM | 1.78 µM | 2.8 µM | 3.41 µM
O=C(/C=C/c1ccc([N+](=O)[O-])cc1)c1nc2ccccc2[nH]1 | > 100 µM | > 100 µM | > 29.9 µM | > 100 µM | > 57.2 µM |  | > 78.1 µM | > 100 µM | > 100 µM | > 100 µM |  |  |  |  |  |  |  |  |  | 
CC[N+](C)(CC)CCN1C(=O)c2ccccc2S1(=O)=O | > 100 µM | > 100 µM | > 100 µM | > 100 µM | > 100 µM | > 100 µM | > 100 µM | > 100 µM | > 100 µM | > 100 µM |  |  |  |  |  |  |  |  |  | 
CN1CC(c2ccccc2)N(CCCCN2CC(c3ccccc3)N(C)CC2c2ccccc2)CC1c1ccccc1 (stereo not drawn) | > 100 µM | > 100 µM | > 100 µM | 81.8 µM | > 100 µM |  | > 100 µM | 71.1 µM | > 100 µM | > 100 µM |  |  |  |  |  |  |  |  |  | 
Cc1cc(S(=O)(=O)Nc2nnc3cc(C(F)(F)F)cc(C)n23)c(S)cc1Cl | > 100 µM | > 100 µM | > 100 µM | > 100 µM | > 100 µM | > 100 µM | > 100 µM | > 100 µM | > 100 µM | > 100 µM |  |  |  |  |  |  |  |  |  | 
